Test results published in ChEMBL document CHEMBL1165899, “Synthesis and antitumor evaluation of novel cyclic arylsulfonylureas: ADME-T and pharmacophore prediction” (2010).

Assays:
Format in all cases: functional
[1] = tested on: SK-MEL-2; test: Growth inhibition of human SK-MEL-2 cells at 10 uM after 48 hrs by sulforhodamine B assay relative to control; details: SK-MEL-2, 48 h, read-out: GI
[2] = tested on: IGROV-1; test: Growth inhibition of human IGROV1 cells at 10 uM after 48 hrs by sulforhodamine B assay relative to control; details: IGROV-1, 48 h, read-out: GI
[3] = tested on: M14; test: Growth inhibition of human M14 cells at 10 uM after 48 hrs by sulforhodamine B assay relative to control; details: M14, 48 h, read-out: GI
[4] = tested on: OVCAR-8; test: Growth inhibition of human OVCAR8 cells at 10 uM after 48 hrs by sulforhodamine B assay relative to control; details: OVCAR-8, 48 h, read-out: GI
[5] = tested on: RXF 393; test: Growth inhibition of human RXF393 cells at 10 uM after 48 hrs by sulforhodamine B assay relative to control; details: RXF 393, 48 h, read-out: GI

O=c1c2ccccc2n(S(=O)(=O)c2ccc(Cl)cc2)c(=O)n1-c1ccccc1
inhibition of growth at 10 µM [1]: 79.3% | inhibition of growth at 10 µM [2]: 91.4% | inhibition of growth at 10 µM [3]: 17.4% | inhibition of growth at 10 µM [4]: 40.9%

O=C1N/C(=C\c2ccc(Cl)cc2)C(=O)N1S(=O)(=O)c1ccccc1
inhibition of growth at 10 µM [1]: 19.9% | inhibition of growth at 10 µM [2]: 1.13% | inhibition of growth at 10 µM [4]: 6.79% | inhibition of growth at 10 µM [5]: 7.42%

Cc1ccc(S(=O)(=O)N2C(=O)CC(=O)N(c3ccc(Cl)cc3)C2=O)cc1
inhibition of growth at 10 µM [1]: 73.9% | inhibition of growth at 10 µM [2]: 65.6% | inhibition of growth at 10 µM [3]: -7.35% | inhibition of growth at 10 µM [4]: 54.1%

O=C1N/C(=C\c2ccc(Cl)cc2)C(=O)N1S(=O)(=O)c1ccc(Cl)cc1
inhibition of growth at 10 µM [1]: 17.6% | inhibition of growth at 10 µM [2]: 81% | inhibition of growth at 10 µM [3]: -20.1% | inhibition of growth at 10 µM [4]: 4.01% | inhibition of growth at 10 µM [5]: 76.2%

COc1ccc(/C=C2\NC(=O)N(S(=O)(=O)c3ccccc3)C2=O)cc1
inhibition of growth at 10 µM [1]: 11.6% | inhibition of growth at 10 µM [2]: 115% | inhibition of growth at 10 µM [4]: 5.23% | inhibition of growth at 10 µM [5]: 96.5%

CN(C)c1ccc(/C=C2\NC(=O)N(S(=O)(=O)c3ccccc3)C2=O)cc1
inhibition of growth at 10 µM [1]: 3.98% | inhibition of growth at 10 µM [2]: 107% | inhibition of growth at 10 µM [3]: -2.88% | inhibition of growth at 10 µM [4]: 1.17% | inhibition of growth at 10 µM [5]: 80.3%

O=C1N/C(=C\c2ccccc2)C(=O)N1S(=O)(=O)c1ccc(Cl)cc1
inhibition of growth at 10 µM [1]: 11.7% | inhibition of growth at 10 µM [2]: -9.05% | inhibition of growth at 10 µM [4]: 3.88% | inhibition of growth at 10 µM [5]: 0.92%

O=C1CC(=O)N(S(=O)(=O)c2ccc(Cl)cc2)C(=O)N1c1ccccc1
inhibition of growth at 10 µM [1]: 65.1% | inhibition of growth at 10 µM [2]: 34.1% | inhibition of growth at 10 µM [3]: 8.19% | inhibition of growth at 10 µM [4]: 58.9%

COc1ccc(N2C(=O)CC(=O)N(S(=O)(=O)c3ccc(Cl)cc3)C2=O)cc1
inhibition of growth at 10 µM [1]: 61.1% | inhibition of growth at 10 µM [2]: 76.5% | inhibition of growth at 10 µM [3]: -3.04% | inhibition of growth at 10 µM [4]: 42.4%

COc1ccc(/C=C2\NC(=O)N(S(=O)(=O)c3ccc(Cl)cc3)C2=O)cc1
inhibition of growth at 10 µM [1]: 8.98% | inhibition of growth at 10 µM [2]: -1.97% | inhibition of growth at 10 µM [4]: -1.23% | inhibition of growth at 10 µM [5]: 84.1%

O=c1c2ccccc2n(S(=O)(=O)c2ccccc2)c(=O)n1-c1ccccc1
inhibition of growth at 10 µM [1]: 70.4% | inhibition of growth at 10 µM [2]: 86.8% | inhibition of growth at 10 µM [3]: 1.02% | inhibition of growth at 10 µM [4]: 33.2%

COc1ccc(-n2c(=O)c3ccccc3n(S(=O)(=O)c3ccccc3)c2=O)cc1
inhibition of growth at 10 µM [1]: -43.2% | inhibition of growth at 10 µM [2]: 63.2% | inhibition of growth at 10 µM [3]: 56.5% | inhibition of growth at 10 µM [4]: 26% | inhibition of growth at 10 µM [5]: 43%
